In ChEMBL document CHEMBL1909046, “DrugMatrix in vitro pharmacology data”:

target: Cytochrome P450 2D6 (Homo sapiens, UniProt P10635); details: bti-tn-5b1-4
Further: in other assays of this panel Not Active means under 50% inhibition at 10 µM.

Chain of Cytochrome P450 2D6 (P10635 whole entry): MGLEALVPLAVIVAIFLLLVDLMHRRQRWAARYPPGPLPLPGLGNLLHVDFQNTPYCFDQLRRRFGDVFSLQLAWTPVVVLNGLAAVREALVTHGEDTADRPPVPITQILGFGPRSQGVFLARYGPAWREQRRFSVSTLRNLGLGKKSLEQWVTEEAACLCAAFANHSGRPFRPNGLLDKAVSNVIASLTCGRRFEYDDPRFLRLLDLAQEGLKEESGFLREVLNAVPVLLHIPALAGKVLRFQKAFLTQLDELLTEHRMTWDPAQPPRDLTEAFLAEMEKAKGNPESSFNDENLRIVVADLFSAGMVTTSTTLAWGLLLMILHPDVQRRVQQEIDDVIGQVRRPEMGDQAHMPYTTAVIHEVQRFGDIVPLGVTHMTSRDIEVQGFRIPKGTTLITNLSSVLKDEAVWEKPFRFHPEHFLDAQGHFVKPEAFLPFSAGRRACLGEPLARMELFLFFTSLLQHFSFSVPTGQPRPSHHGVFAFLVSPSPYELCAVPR

| Structure (SMILES) | IC50 | Ki |
| --- | --- | --- |
| CC1CN(c2cc3c(cc2F)c(=O)c(C(=O)O)cn3-c2ccc(F)cc2F)CCN1 (stereo unspecified) [TEMAFLOXACIN] | Not Active | Not Active |
| COS(C)(=O)=O [METHANESULFONIC ACID METHYL ESTER] | Not Active | Not Active |
| COC(=O)c1ccc(O)cc1 [METHYLPARABEN] | Not Active | Not Active |
| C[C@](N)(Cc1ccc(O)cc1)C(=O)O [METYROSINE] | Not Active | Not Active |
| CCC[C@@H]1C[C@@H](C(=O)N[C@@H]([C@H]2O[C@H](SC)[C@H](O)[C@@H](O)[C@H]2O)[C@@H](C)O)N(C)C1 [LINCOMYCIN] | Not Active | Not Active |
| COc1c(C)c2c(c(O)c1C/C=C(\C)CCC(=O)OCCN1CCOCC1)C(=O)OC2 [MYCOPHENOLATE MOFETIL] | Not Active | Not Active |

target: T1, Nitric oxide synthase, inducible (Mus musculus, UniProt P29477); set-up: species or system Escherichia coli; details: not given;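 further: inhibition of iNOS enzyme activity measured with L-arginine as substrate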
T1 sequence (P29477 whole entry): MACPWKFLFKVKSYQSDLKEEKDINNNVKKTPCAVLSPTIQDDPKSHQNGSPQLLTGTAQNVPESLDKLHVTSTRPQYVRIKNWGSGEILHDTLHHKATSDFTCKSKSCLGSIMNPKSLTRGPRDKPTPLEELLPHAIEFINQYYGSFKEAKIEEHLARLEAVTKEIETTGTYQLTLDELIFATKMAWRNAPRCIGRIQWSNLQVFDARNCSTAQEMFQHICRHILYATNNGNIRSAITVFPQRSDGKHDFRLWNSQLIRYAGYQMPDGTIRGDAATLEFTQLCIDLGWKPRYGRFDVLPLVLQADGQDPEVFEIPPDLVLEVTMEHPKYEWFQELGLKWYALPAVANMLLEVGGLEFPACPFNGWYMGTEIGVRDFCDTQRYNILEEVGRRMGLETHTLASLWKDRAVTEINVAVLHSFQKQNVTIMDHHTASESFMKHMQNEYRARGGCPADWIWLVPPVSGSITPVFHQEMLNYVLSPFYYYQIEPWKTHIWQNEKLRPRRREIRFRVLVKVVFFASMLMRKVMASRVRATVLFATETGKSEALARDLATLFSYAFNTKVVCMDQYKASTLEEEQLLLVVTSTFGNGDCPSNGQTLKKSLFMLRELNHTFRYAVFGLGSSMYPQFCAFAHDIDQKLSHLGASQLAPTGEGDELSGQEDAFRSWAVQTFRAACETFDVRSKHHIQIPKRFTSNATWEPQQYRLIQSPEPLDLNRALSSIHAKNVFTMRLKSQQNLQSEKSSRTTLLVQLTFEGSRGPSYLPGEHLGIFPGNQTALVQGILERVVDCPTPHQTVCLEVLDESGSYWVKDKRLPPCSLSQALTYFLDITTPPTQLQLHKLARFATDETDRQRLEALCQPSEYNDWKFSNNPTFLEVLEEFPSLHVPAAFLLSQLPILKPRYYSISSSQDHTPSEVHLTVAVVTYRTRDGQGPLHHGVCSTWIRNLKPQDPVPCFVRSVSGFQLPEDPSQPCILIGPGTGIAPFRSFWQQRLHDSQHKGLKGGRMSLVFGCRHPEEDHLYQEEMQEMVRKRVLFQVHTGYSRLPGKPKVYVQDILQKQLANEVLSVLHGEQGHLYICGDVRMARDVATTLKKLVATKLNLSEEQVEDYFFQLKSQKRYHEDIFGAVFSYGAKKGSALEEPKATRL

| Structure (SMILES) | IC50 |
| --- | --- |
| CC1CN(c2cc3c(cc2F)c(=O)c(C(=O)O)cn3-c2ccc(F)cc2F)CCN1 (stereo unspecified) [TEMAFLOXACIN] | Not Active |
| COS(C)(=O)=O [METHANESULFONIC ACID METHYL ESTER] | Not Active |
| COC(=O)c1ccc(O)cc1 [METHYLPARABEN] | Not Active |
| C[C@](N)(Cc1ccc(O)cc1)C(=O)O [METYROSINE] | Not Active |
| CCC[C@@H]1C[C@@H](C(=O)N[C@@H]([C@H]2O[C@H](SC)[C@H](O)[C@@H](O)[C@H]2O)[C@@H](C)O)N(C)C1 [LINCOMYCIN] | Not Active |
| COc1c(C)c2c(c(O)c1C/C=C(\C)CCC(=O)OCCN1CCOCC1)C(=O)OC2 [MYCOPHENOLATE MOFETIL] | Not Active |

target: T2, Estrogen receptor (Homo sapiens, UniProt P03372); details: sf9
T2 sequence (P03372 whole entry): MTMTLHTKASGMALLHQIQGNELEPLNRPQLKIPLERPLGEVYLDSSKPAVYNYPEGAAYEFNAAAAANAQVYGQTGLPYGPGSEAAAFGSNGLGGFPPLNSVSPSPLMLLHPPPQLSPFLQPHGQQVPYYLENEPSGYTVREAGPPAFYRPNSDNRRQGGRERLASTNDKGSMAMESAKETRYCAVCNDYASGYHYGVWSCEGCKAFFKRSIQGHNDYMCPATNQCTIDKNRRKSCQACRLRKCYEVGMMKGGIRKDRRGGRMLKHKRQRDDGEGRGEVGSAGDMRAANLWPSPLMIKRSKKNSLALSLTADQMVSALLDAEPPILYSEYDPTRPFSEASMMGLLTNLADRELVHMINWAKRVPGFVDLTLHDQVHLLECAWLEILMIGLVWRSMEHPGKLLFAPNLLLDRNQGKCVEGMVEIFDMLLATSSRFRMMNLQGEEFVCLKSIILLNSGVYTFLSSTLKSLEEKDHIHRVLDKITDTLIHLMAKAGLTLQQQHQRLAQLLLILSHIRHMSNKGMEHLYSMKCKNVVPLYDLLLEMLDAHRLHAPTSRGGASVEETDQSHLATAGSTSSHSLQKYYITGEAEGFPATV

| Structure (SMILES) | IC50 |
| --- | --- |
| CC1CN(c2cc3c(cc2F)c(=O)c(C(=O)O)cn3-c2ccc(F)cc2F)CCN1 (stereo unspecified) [TEMAFLOXACIN] | Not Active |
| COS(C)(=O)=O [METHANESULFONIC ACID METHYL ESTER] | Not Active |
| COC(=O)c1ccc(O)cc1 [METHYLPARABEN] | Not Active |
| C[C@](N)(Cc1ccc(O)cc1)C(=O)O [METYROSINE] | Not Active |
| CCC[C@@H]1C[C@@H](C(=O)N[C@@H]([C@H]2O[C@H](SC)[C@H](O)[C@@H](O)[C@H]2O)[C@@H](C)O)N(C)C1 [LINCOMYCIN] | Not Active |
| COc1c(C)c2c(c(O)c1C/C=C(\C)CCC(=O)OCCN1CCOCC1)C(=O)OC2 [MYCOPHENOLATE MOFETIL] | Not Active |

target: Cytochrome P450 2C19 (Homo sapiens, UniProt P33261); details: bti-tn-5b1-4
Sequence (P33261 whole entry): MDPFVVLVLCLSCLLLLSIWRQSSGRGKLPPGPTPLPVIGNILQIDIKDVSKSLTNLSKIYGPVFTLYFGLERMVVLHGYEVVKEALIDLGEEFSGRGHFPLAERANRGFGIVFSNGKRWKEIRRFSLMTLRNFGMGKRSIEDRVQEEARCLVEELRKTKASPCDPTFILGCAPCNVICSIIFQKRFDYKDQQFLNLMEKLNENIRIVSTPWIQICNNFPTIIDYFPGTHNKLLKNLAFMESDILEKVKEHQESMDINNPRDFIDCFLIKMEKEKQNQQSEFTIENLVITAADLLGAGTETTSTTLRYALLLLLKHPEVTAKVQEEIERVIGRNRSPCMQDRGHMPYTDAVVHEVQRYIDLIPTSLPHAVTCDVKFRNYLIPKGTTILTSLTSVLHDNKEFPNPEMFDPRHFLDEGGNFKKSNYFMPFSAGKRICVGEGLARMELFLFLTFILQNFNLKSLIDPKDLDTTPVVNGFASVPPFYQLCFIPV

| Structure (SMILES) | IC50 | Ki |
| --- | --- | --- |
| CC1CN(c2cc3c(cc2F)c(=O)c(C(=O)O)cn3-c2ccc(F)cc2F)CCN1 (stereo unspecified) [TEMAFLOXACIN] | Not Active | Not Active |
| COS(C)(=O)=O [METHANESULFONIC ACID METHYL ESTER] | Not Active | Not Active |
| COC(=O)c1ccc(O)cc1 [METHYLPARABEN] | Not Active | Not Active |
| C[C@](N)(Cc1ccc(O)cc1)C(=O)O [METYROSINE] | Not Active | Not Active |
| CCC[C@@H]1C[C@@H](C(=O)N[C@@H]([C@H]2O[C@H](SC)[C@H](O)[C@@H](O)[C@H]2O)[C@@H](C)O)N(C)C1 [LINCOMYCIN] | Not Active | Not Active |
| COc1c(C)c2c(c(O)c1C/C=C(\C)CCC(=O)OCCN1CCOCC1)C(=O)OC2 [MYCOPHENOLATE MOFETIL] | Not Active | Not Active |

target: T3, Type-2 angiotensin II receptor (Homo sapiens, UniProt P50052); type: cell-based; details: cho-k1
T3 sequence (P50052 whole entry): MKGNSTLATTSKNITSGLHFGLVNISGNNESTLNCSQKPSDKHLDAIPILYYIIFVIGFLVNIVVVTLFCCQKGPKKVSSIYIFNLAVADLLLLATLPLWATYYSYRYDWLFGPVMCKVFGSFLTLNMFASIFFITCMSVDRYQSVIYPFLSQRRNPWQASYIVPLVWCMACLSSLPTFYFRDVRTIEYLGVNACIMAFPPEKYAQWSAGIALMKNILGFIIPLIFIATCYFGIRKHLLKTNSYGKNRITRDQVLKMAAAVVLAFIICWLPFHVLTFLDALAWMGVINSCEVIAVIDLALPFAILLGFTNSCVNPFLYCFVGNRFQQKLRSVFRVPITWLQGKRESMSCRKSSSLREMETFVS

| Structure (SMILES) | IC50 |
| --- | --- |
| CC1CN(c2cc3c(cc2F)c(=O)c(C(=O)O)cn3-c2ccc(F)cc2F)CCN1 (stereo unspecified) [TEMAFLOXACIN] | Not Active |
| COS(C)(=O)=O [METHANESULFONIC ACID METHYL ESTER] | Not Active |
| COC(=O)c1ccc(O)cc1 [METHYLPARABEN] | Not Active |
| C[C@](N)(Cc1ccc(O)cc1)C(=O)O [METYROSINE] | Not Active |
| CCC[C@@H]1C[C@@H](C(=O)N[C@@H]([C@H]2O[C@H](SC)[C@H](O)[C@@H](O)[C@H]2O)[C@@H](C)O)N(C)C1 [LINCOMYCIN] | Not Active |
| COc1c(C)c2c(c(O)c1C/C=C(\C)CCC(=O)OCCN1CCOCC1)C(=O)OC2 [MYCOPHENOLATE MOFETIL] | Not Active |

target: Cytochrome P450 2C9 (Homo sapiens, UniProt P11712); details: bti-tn-5b1-4
Sequence (P11712 whole entry): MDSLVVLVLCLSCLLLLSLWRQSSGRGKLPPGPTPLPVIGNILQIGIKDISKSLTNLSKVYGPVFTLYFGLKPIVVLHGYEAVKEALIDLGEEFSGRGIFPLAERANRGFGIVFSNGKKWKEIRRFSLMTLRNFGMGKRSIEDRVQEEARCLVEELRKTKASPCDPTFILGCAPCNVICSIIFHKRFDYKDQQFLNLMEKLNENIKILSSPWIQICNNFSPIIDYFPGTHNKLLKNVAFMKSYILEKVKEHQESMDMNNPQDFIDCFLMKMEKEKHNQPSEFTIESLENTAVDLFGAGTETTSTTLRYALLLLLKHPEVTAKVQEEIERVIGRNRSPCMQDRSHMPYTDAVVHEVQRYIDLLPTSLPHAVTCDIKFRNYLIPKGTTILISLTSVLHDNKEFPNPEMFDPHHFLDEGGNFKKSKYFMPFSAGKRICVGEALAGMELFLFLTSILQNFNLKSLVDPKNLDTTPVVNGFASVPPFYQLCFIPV

| Structure (SMILES) | IC50 | Ki |
| --- | --- | --- |
| CC1CN(c2cc3c(cc2F)c(=O)c(C(=O)O)cn3-c2ccc(F)cc2F)CCN1 (stereo unspecified) [TEMAFLOXACIN] | Not Active | Not Active |
| COS(C)(=O)=O [METHANESULFONIC ACID METHYL ESTER] | Not Active | Not Active |
| COC(=O)c1ccc(O)cc1 [METHYLPARABEN] | Not Active | Not Active |
| C[C@](N)(Cc1ccc(O)cc1)C(=O)O [METYROSINE] | Not Active | Not Active |
| CCC[C@@H]1C[C@@H](C(=O)N[C@@H]([C@H]2O[C@H](SC)[C@H](O)[C@@H](O)[C@H]2O)[C@@H](C)O)N(C)C1 [LINCOMYCIN] | Not Active | Not Active |
| COc1c(C)c2c(c(O)c1C/C=C(\C)CCC(=O)OCCN1CCOCC1)C(=O)OC2 [MYCOPHENOLATE MOFETIL] | Not Active | Not Active |

target: T4, Cytochrome P450 1A2 (Homo sapiens, UniProt P05177); details: bti-tn-5b1-4
T4 sequence (P05177 whole entry): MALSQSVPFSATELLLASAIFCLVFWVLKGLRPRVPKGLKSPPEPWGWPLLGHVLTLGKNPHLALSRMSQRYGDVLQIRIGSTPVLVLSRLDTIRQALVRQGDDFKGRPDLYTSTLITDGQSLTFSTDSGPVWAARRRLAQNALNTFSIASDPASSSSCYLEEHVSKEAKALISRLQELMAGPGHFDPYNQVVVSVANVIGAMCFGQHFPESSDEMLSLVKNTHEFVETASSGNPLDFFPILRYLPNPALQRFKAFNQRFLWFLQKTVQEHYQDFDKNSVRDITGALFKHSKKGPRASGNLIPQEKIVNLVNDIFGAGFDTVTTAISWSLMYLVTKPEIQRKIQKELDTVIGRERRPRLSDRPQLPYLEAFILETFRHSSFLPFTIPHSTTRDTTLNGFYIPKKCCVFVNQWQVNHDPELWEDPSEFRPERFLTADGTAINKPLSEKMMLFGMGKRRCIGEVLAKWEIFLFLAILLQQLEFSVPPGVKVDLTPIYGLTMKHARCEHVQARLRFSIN

| Structure (SMILES) | IC50 | Ki |
| --- | --- | --- |
| CC1CN(c2cc3c(cc2F)c(=O)c(C(=O)O)cn3-c2ccc(F)cc2F)CCN1 (stereo unspecified) [TEMAFLOXACIN] | Not Active | Not Active |
| COS(C)(=O)=O [METHANESULFONIC ACID METHYL ESTER] | Not Active | Not Active |
| COC(=O)c1ccc(O)cc1 [METHYLPARABEN] | Not Active | Not Active |
| C[C@](N)(Cc1ccc(O)cc1)C(=O)O [METYROSINE] | Not Active | Not Active |
| CCC[C@@H]1C[C@@H](C(=O)N[C@@H]([C@H]2O[C@H](SC)[C@H](O)[C@@H](O)[C@H]2O)[C@@H](C)O)N(C)C1 [LINCOMYCIN] | Not Active | Not Active |
| COc1c(C)c2c(c(O)c1C/C=C(\C)CCC(=O)OCCN1CCOCC1)C(=O)OC2 [MYCOPHENOLATE MOFETIL] | Not Active | Not Active |
